Earlier results in patent US20240115494A1, “ENCAPSULATED COMPOSITIONS AND METHOD OF USE - AFFECTING SATIETY” (Nutragenom, LLC, priority 2021, published 2024).

Conditions: 100% glycerol, quoted for comparison

Viscosity (comparison value): 4,000 mPa·s
SMILES: OCC(O)CO [100% glycerol, glycerol]
